How the values were obtained:
WDR5 [1] = target: T1, WDR5 (Homo sapiens, UniProt P61964); test: Surface Plasmon Resonance (SPR) assay; format: binding; parameters: Full length WDR5 with an N-terminal His tag and C-terminal AviTag; His tag (N); made in house; host or cells: E. coli; conditions: read-out: SPR Kd
Procedure, shortened: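 Full-length biotinylated WDR5 (N-His, C-AviTag, E. coli) captured (~3000 RU) on streptavidin SA chip; Biacore T200. HBS-EP pH 7.4 plus 5% DMSO running buffer, 40 μl/min.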

MV4-11 cells = test: Cell proliferation assay (ATPlite); format: cell-based; conditions: Homo sapiens, 120 h; MV4-11 cells, five days; read-out: GI MV411 EC50
Procedure, shortened: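 Cells seeded at 1,000/well in Alpha-MEM with 10% FBS, treated with compound over a 10-point range (top 10 μM) or DMSO. Grown five days at 37° C, 5% CO2; viability by ATPlite luminescence.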

WDR5 [2] = target: T1, WDR5; test: Fluorescence Polarization (FP) binding assay
Procedure, shortened: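 Displacement of fluorescein-labelled H3 (1-15) (30 nM, with 0.3 μM WDR5) or 9-Ala-FAM (20 nM, with 0.05 μM WDR5) in 80 mM sodium phosphate pH 6.5, 20 mM KCl, 0.008% Triton X-100. FP read at 485/528 nm (H3) or 480/540 nm (9-Ala-FAM); Kdisp from hyperbolic fit, mean of quadruplicates.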

| Compound | Kd (WDR5 [1]) [nM] | EC50 (MV4-11 cells) [nM] | IC50 (WDR5 [2]) [nM] |
| --- | --- | --- | --- |
| CC(C)OC(=O)N1CC=C(c2c(F)cc(N3CCN(C)[C@@H](C)C3)c(NC(=O)c3c[nH]c(=O)cc3C(F)(F)F)c2F)C1 [Example 37, Isopropyl (S)-3-(4-(3,4-dimethylpiperazin-1-yl)-2,6-difluoro-3-(6-oxo-4-(trifluoromethyl)-1,6-dihydropyridine-3-carboxamido)phenyl)-2,5-dihydro-1H-pyrrole-1-carboxylate] | 2.24 | 108 | 16.2 |
| CC(C)[C@H]1CN(c2ncc(-c3c(F)cc(N4C[C@@H](C)N(C)[C@@H](C)C4)c(NC(=O)c4c[nH]c(=O)cc4C(F)(F)F)c3F)cn2)CCO1 [Example 103, N-(2,4-difluoro-3-(2-((S)-2-isopropylmorpholino)pyrimidin-5-yl)-6-((3S,5R)-3,4,5-trimethylpiperazin-1-yl)phenyl)-6-oxo-4-(trifluoromethyl)-1,6-dihydropyridine-3-carboxamide] | 5.01 | 14.7 | 17.7 |
| C[C@H]1CN(c2cc(F)c(C3=CCCN(C(=O)OC4CC(F)(F)C4)C3)c(F)c2NC(=O)c2c[nH]c(=O)cc2C(F)(F)F)CCN1C [Example 46, 3,3-Difluorocyclobutyl (S)-5-(4-(3,4-dimethylpiperazin-1-yl)-2,6-difluoro-3-(6-oxo-4-(trifluoromethyl)-1,6-dihydropyridine-3-carboxamido)phenyl)-3,6-dihydropyridine-1(2H)-carboxylate] | 2.97 | 607 | 14.9 |
| COc1cc(N2CC=C(c3c(F)cc(N4CCN(C)[C@@H](C)C4)c(NC(=O)c4c[nH]c(=O)cc4C(F)(F)F)c3F)C2)ncn1 [Example 75, (S)—N-(6-(3,4-dimethylpiperazin-1-yl)-2,4-difluoro-3-(1-(6-methoxypyrimidin-4-yl)-2,5-dihydro-1H-pyrrol-3-yl)phenyl)-6-oxo-4-(trifluoromethyl)-1,6-dihydropyridine-3-carboxamide] | 1.8 | 35.1 | 18.5 |
| C[C@@H]1CN(c2cc(F)c(C3=CCN(C(=O)OC4CC(F)(F)C4)CC3)c(F)c2NC(=O)c2c[nH]c(=O)cc2C(F)(F)F)C[C@H](C)N1C [Example 135, 3,3-Difluorocyclobutyl 4-(2,6-difluoro-3-(6-oxo-4-(trifluoromethyl)-1,6-dihydropyridine-3-carboxamido)-4-((3S,5R)-3,4,5-trimethylpiperazin-1-yl)phenyl)-5,6-dihydropyridine-1(2H)-carboxylate] | 2.31 | 67.4 | 12.5 |
| C[C@@H]1CN(c2nccc(-c3c(F)cc(N4CCN(C)[C@@H](C)C4)c(NC(=O)c4cn(C)c(=O)cc4C(F)(F)F)c3F)n2)C[C@H](C)O1 [Example 56, N-(3-(2-((2S,6R)-2,6-dimethylmorpholino)pyrimidin-4-yl)-6-((S)-3,4-dimethylpiperazin-1-yl)-2,4-difluorophenyl)-1-methyl-6-oxo-4-(trifluoromethyl)-1,6-dihydropyridine-3-carboxamide] | 9.79 | 1320 | 36.7 |
| C[C@H]1CN(c2cc(F)c(C3=CCN(C(=O)OC4(C)CCC4)CC3)c(F)c2NC(=O)c2c[nH]c(=O)cc2C(F)(F)F)CCN1C [Example 93, 1-Methylcyclobutyl(S)-4-(4-(3,4-dimethylpiperazin-1-yl)-2,6-difluoro-3-(6-oxo-4-(trifluoromethyl)-1,6-dihydropyridine-3-carboxamido)phenyl)-3,6-dihydropyridine-1(2H)-carboxylate] | 2.15 | 19.4 | 15.4 |
| C[C@@H]1CN(c2cc(F)c(-c3cnc(N4CCOCC4)c(C#N)c3)c(F)c2NC(=O)c2c[nH]c(=O)cc2C(F)(F)F)C[C@H](C)N1C [Example 64, N-(3-(5-cyano-6-morpholinopyridin-3-yl)-2,4-difluoro-6-((3S,5R)-3,4,5-trimethylpiperazin-1-yl)phenyl)-6-oxo-4-(trifluoromethyl)-1,6-dihydropyridine-3-carboxamide] | 2.48 | 32.7 | 14.9 |

These reach a lower Kd (WDR5 [1]). Values come first.

| Kd (WDR5 [1]) [nM] | EC50 (MV4-11 cells) [nM] | IC50 (WDR5 [2]) [nM] | Compound |
| --- | --- | --- | --- |
| 0.82 | 169 | 13.6 | C[C@@H]1CN(c2ncc(-c3c(F)cc(N4CCN(C)[C@@H](C)C4)c(NC(=O)c4cn(C)c(=O)cc4C(F)(F)F)c3F)cn2)C[C@@H](C)O1 [Example 165, N-(3-(2-((2R,6R)-2,6-dimethylmorpholino)pyrimidin-5-yl)-6-((S)-3,4-dimethylpiperazin-1-yl)-2,4-difluorophenyl)-1-methyl-6-oxo-4-(trifluoromethyl)-1,6-dihydropyridine-3-carboxamide] |
| 1.24 | 10.3 | 13.8 | C[C@@H]1CN(c2ncc(-c3c(F)cc(N4CCN(C)[C@@H](C)C4)c(NC(=O)c4c[nH]c(=O)cc4C(F)(F)F)c3F)cn2)C[C@@H](C)O1 [Example 85, N-(3-(2-((2R,6R)-2,6-dimethylmorpholino)pyrimidin-5-yl)-6-((S)-3,4-dimethylpiperazin-1-yl)-2,4-difluorophenyl)-6-oxo-4-(trifluoromethyl)-1,6-dihydropyridine-3-carboxamide] |
| 1.62 | 169 | 14.7 | C[C@H]1CN(c2cc(F)c(C3=CCCN(c4ncc(C#N)s4)C3)c(F)c2NC(=O)c2c[nH]c(=O)cc2C(F)F)CCN1C [Example 99, (S)—N-(3-(1-(5-cyanothiazol-2-yl)-1,2,5,6-tetrahydropyridin-3-yl)-6-(3,4-dimethylpiperazin-1-yl)-2,4-difluorophenyl)-4-(difluoromethyl)-6-oxo-1,6-dihydropyridine-3-carboxamide] |
| 1.7 | 653 | 15.9 | C[C@H]1CN(c2cc(F)c(C3=CCCN(C(=O)OC4CC(F)(F)C4)C3)c(F)c2NC(=O)c2c[nH]c(=O)cc2C(F)F)CCN1C [Example 43, 3,3-Difluorocyclobutyl (S)-5-(3-(4-(difluoromethyl)-6-oxo-1,6-dihydropyridine-3-carboxamido)-4-(3,4-dimethylpiperazin-1-yl)-2,6-difluorophenyl)-3,6-dihydropyridine-1(2H)-carboxylate] |
| 1.12 | 36.5 | 15.2 | C[C@@H]1CN(c2ncc(-c3c(F)cc(N4C[C@@H](C)N(C)[C@@H](C)C4)c(NC(=O)c4c[nH]c(=O)cc4C(F)F)c3F)cn2)C[C@@H](C)O1 [Example 116, 4-(Difluoromethyl)-N-(3-(2-((2R,6R)-2,6-dimethylmorpholino)pyrimidin-5-yl)-2,4-difluoro-6-((3S,5R)-3,4,5-trimethylpiperazin-1-yl)phenyl)-6-oxo-1,6-dihydropyridine-3-carboxamide] |
| 1.71 | 191 | 19.5 | C[C@H]1CN(c2cc(F)c(-c3ccc(N4CCOCC4)nc3)c(F)c2NC(=O)c2ccc(F)cc2C(F)(F)F)CCN1C [Example 174, (S)—N-(6-(3,4-dimethylpiperazin-1-yl)-2,4-difluoro-3-(6-morpholinopyridin-3-yl)phenyl)-4-fluoro-2-(trifluoromethyl)benzamide] |
| 0.9 | 20.4 | 11.7 | C[C@H]1CN(c2ncc(-c3c(F)cc(N4CCN(C)[C@@H](C)C4)c(NC(=O)c4c[nH]c(=O)cc4C(F)F)c3F)cn2)C[C@H](C)O1 [Example 119, 4-(Difluoromethyl)-N-(3-(2-((2S,6S)-2,6-dimethylmorpholino)pyrimidin-5-yl)-6-((S)-3,4-dimethylpiperazin-1-yl)-2,4-difluorophenyl)-6-oxo-1,6-dihydropyridine-3-carboxamide] |
| 1.22 | 52.8 | 16 | C[C@H]1CN(c2cc(F)c(C3=CCN(c4ncc(F)cn4)CC3)c(F)c2NC(=O)c2c[nH]c(=O)cc2C(F)(F)F)CCN1C [Example 82, (S)—N-(6-(3,4-dimethylpiperazin-1-yl)-2,4-difluoro-3-(1-(5-fluoropyrimidin-2-yl)-1,2,3,6-tetrahydropyridin-4-yl)phenyl)-6-oxo-4-(trifluoromethyl)-1,6-dihydropyridine-3-carboxamide] |
| 1.51 | 487 | 12.7 | C[C@@H]1CN(c2cc(F)c(C3=CCCN(C(=O)c4csc(CN(C)C)n4)C3)c(F)c2NC(=O)c2c[nH]c(=O)cc2C(F)(F)F)C[C@H](C)N1C [Example 189, N-(3-(1-(2-((dimethylamino)methyl)thiazole-4-carbonyl)-1,2,5,6-tetrahydropyridin-3-yl)-2,4-difluoro-6-((3S,5R)-3,4,5-trimethylpiperazin-1-yl)phenyl)-6-oxo-4-(trifluoromethyl)-1,6-dihydropyridine-3-carboxamide] |
| 1.17 | 90.3 | 25.5 | C[C@H]1CN(c2cc(F)c(-c3ccc4c(c3)OCO4)c(F)c2NC(=O)c2c[nH]c(=O)cc2C(F)(F)F)CCN1C [Example 184, (S)—N-(3-(benzo[d][1,3]dioxol-5-yl)-6-(3,4-dimethylpiperazin-1-yl)-2,4-difluorophenyl)-6-oxo-4-(trifluoromethyl)-1,6-dihydropyridine-3-carboxamide] |
